Test results: patent publication US8809342B2, “Glucagon receptor modulators” (Pfizer Inc., priority 2010, dated 2014)

Target: T1, human glucagon receptor (Homo sapiens, UniProt P47871)
T1 construct: expressed in transfected cells; host or cells: CHO-K1 cells, stably transfected
Assay: Glucagon cAMP assay (Cisbio cAMP detection)
Assay type: cell-based
Protocol: The Cisbio cAMP detection assay is used to determine the ability of punitive glucagon antagonist to block glucagon induced cAMP production. Potential glucagon antagonists are re-suspended and diluted in 100% DMSO. Prior to use in the Glucagon cAMP assay 100×DMSO compound stocks are diluted 20× with DMEM-F12 media (Invitrogen) containing either 0.1% or 4% BSA. 2 uls of 5× compound stocks are spotted into the appropriate wells of low binding white solid bottom 384 well plates (Corning). 2 uls of 5% DMSO or known glucagon antagonist are added to each plate to define the assay window. CHOK1 cells stably transfected with the human glucagon receptor are removed from culture flasks with cell dissociation buffer. Cell pellets are re-suspended, at a concentration of 8.3e^5 cells/ml in DMEM-F12 with or without 4% BSA and 200 uM IBMX. 6 uls of cell suspensions are added to the assay plates. Plates are incubated for 20 min at room temperature prior to the addition of a 100 pM challenge dose of glucagon. On a separate plate glucagon dose response curves are run to determine the EC50 of glucagon. After a 30 min room temperature incubation the reaction is terminated by the addition of lysis buffer containing the cAMP detection reagents. Plates are incubated for an additional 60 min at room temperature prior to being read on the Perkin Elmer fluorescent plate reader. Raw is converted to nM of cAMP produced based on a cAMP standard curve. Converted data is then analyzed using the Pfizer data analysis program. IC50 values are determined from the generated sigmoidal dose response curves. Kb values are the calculated using a modified Cheng-Prusoff equation.

T1 sequence (P47871 26-477): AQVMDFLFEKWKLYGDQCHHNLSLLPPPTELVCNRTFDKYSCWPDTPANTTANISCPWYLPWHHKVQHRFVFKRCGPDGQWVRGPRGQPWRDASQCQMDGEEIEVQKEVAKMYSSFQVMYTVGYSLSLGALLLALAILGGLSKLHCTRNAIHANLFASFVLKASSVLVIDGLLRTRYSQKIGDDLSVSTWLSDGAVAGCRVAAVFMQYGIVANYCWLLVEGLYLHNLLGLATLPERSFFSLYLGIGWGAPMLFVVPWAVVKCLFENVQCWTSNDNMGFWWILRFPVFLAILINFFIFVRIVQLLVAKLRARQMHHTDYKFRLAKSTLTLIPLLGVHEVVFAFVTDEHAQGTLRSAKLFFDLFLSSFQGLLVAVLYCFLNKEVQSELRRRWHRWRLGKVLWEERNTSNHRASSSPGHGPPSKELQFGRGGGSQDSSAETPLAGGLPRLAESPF

| SMILES | Kb |
| --- | --- |
| CCc1ccc(-c2ccc(C(CC(C)C)Nc3ccc(C(=O)NCCC(=O)O)cn3)cc2)cc1 (racemic) [Example 1.54, (+/−)-3-(6-(1-(4′-ethylbiphenyl-4-yl)-3-methylbutylamino)nicotinamido)propanoic acid] | 230 nM |
| CC(C)C(Nc1ccc(C(=O)NCCC(=O)O)cn1)c1ccc(-c2ccc(C(F)(F)F)cc2)cc1 (single isomer, unassigned; (-)) [Example 1.15, (−)-3-(6-(2-methyl-1-(4′-(trifluoromethyl)biphenyl-4-yl)propylamino)nicotinamido) propanoic acid] | 78 nM |
| Cc1cc(C(CC(C)C)Nc2ccc(C(=O)NCCC(=O)O)cn2)ccc1-c1ccc(C(F)(F)F)cc1 (racemic) [Example 1.25, (+/−)-3-(6-(3-methyl-1-(2-methyl-4′-(trifluoromethyl)biphenyl-4-yl)butylamino)nicotinamido)propanoic acid] | 95 nM |
| CCC(Nc1ccc(C(=O)NCCC(=O)O)cn1)c1ccc(-c2ccc(C(F)(F)F)cc2)cc1 (racemic) [Example 1.11] | 280 nM |
| Cc1ccc(C)c(-c2ccc(C(CC(C)C)Nc3ccc(C(=O)NCCC(=O)O)cn3)cc2)c1 (racemic) [Example 1.49, (+/−)-3-(6-(1-(2′,5′-dimethylbiphenyl-4-yl)-3-methylbutylamino)nicotinamido)propanoic acid] | 750 nM |
| CC(C)CC(Nc1ccc(C(=O)NCCC(=O)O)cn1)c1ccc(-c2ccc(F)cc2)cc1 (racemic) [Example 1.51, (+/−)-3-(6-(1-(4′-fluorobiphenyl-4-yl)-3-methylbutylamino)nicotinamido)propanoic acid] | 160 nM |
| CC(C)CC(Nc1ccc(C(=O)NCCC(=O)O)cn1)c1ccc(-c2ccc(C(F)(F)F)nc2)cc1 (racemic) [Example 1.60, (+/−)-3-(6-(3-methyl-1-(4-(6-(trifluoromethyl)pyridin-3-yl)phenyl)butylamino)nicotinamido)propanoic acid] | 280 nM |
| CCC(Nc1ccc(C(=O)NCCC(=O)O)cn1)c1ccc(-c2ccc(C(F)(F)F)cc2)cc1 (single isomer, unassigned; isomer 1) [Example 1.12, 3-(6-(1-(4′-(trifluoromethyl)biphenyl-4-yl)propylamino)nicotinamido) propanoic acid, Isomer 1] | 560 nM |
| CC(C)CC(Nc1ccc(C(=O)NCCC(=O)O)cn1)c1ccc(-c2ccc(Cl)cc2)cc1 (racemic) [Example 1.53, (+/−)-3-(6-(1-(4′-chlorobiphenyl-4-yl)-3-methylbutylamino)nicotinamido)propanoic acid] | 46 nM |
| Cc1ccccc1-c1ccc(C(CC(C)C)Nc2ccc(C(=O)NCCC(=O)O)cn2)cc1 (racemic) [Example 1.42, (+/−)-3-(6-(3-methyl-1-(2′-methylbiphenyl-4-yl)butylamino)nicotinamido)propanoic acid] | 780 nM |
| CC(C)CC(Nc1ccc(C(=O)NCCC(=O)O)cn1)c1ccc(-c2ccc(C#N)cc2)cc1 (racemic) [Example 1.45, (+/−)-3-(6-(1-(4′-cyanobiphenyl-4-yl)-3-methylbutylamino)nicotinamido)propanoic acid] | 620 nM |
| CC(C)CC(Nc1ccc(C(=O)NCCC(=O)O)cn1)c1ccc(-c2cccnc2)cc1 (racemic) [Example 1.40, (+/−)-3-(6-(3-methyl-1-(4-(pyridin-3-yl)phenyl)butylamino)nicotinamido)propanoic acid] | 4600 nM |
| Cc1cc(C(CC(C)C)Nc2ncc(C(=O)NCCC(=O)O)cn2)cc(C)c1-c1ccc(C(F)(F)F)cc1 (racemic) [Example 1.27, (+/−)-3-(2-(1-(2,6-dimethyl-4′-(trifluoromethyl)biphenyl-4-yl)-3-methylbutylamino)pyrimidine-5-carboxamido)propanoic acid] | 260 nM |
| CC(C)CC(Nc1ncc(C(=O)NCCC(=O)O)cn1)c1ccc(-c2ccc(C(F)(F)F)cc2)cc1 (single isomer, unassigned; isomer 1) [Example 1.5, 3-(2-(3-methyl-1-(4′-(trifluoromethyl)biphenyl-4-yl)butylamino)pyrimidine-5-carboxamido)propanoic acid, Isomer 1] | 2900 nM |
| CC(C)CC(Nc1ccc(C(=O)NCCC(=O)O)cn1)c1ccc(-c2ccccn2)cc1 (racemic) [Example 1.55, (+/−)-3-(6-(3-methyl-1-(4-(68yridine-2-yl)phenyl)butylamino)nicotinamido)propanoic acid] | 4800 nM |
| CC(C)CC(Nc1ccc(C(=O)NC[C@@H](O)C(=O)O)cn1)c1ccc(-c2ccc(C(F)(F)F)cc2)cc1 (mixture of isomers) [Example 1.24, (+/−)-(2R)-2-hydroxy-3-(6-(3-methyl-1-(4′-(trifluoromethyl)biphenyl-4-yl)butylamino)nicotinamido)propanoic acid] | 1600 nM |

The next lines start with the values.

| Kb | SMILES |
| --- | --- |
| 1500 nM | CC(C)CC(Oc1ccc(-c2ccc(C(F)(F)F)cc2)cc1)c1ccc(C(=O)NCCC(=O)O)cn1 (racemic) [Example 3.1, (+/−)-3-(6-(3-methyl-1-(4′-(trifluoromethyl)biphenyl-4-Yloxy)butyl)nicotinamido)propanoic acid] |
| 99 nM | CCCC(Nc1cnc(-c2ccc(C(F)(F)F)cc2)cn1)c1ccc(C(=O)NCCC(=O)O)cc1 (racemic) [Example 4.3, (±)-3-(4-(1-((5-(4-(trifluoromethyl)phenyl)pyrazin-2-yl)amino)butyl)benzamido)propanoic acid] |
| 980 nM | CC(C)C[C@@H](Nc1ccc(C(=O)NCCC(=O)O)cn1)c1ccc(-c2ccc(C(F)(F)F)cc2)nc1 (single isomer, unassigned; isomer 2) [Example 4.21, 3-(6-(3-methyl-1-(6-(4-(trifluoromethyl)phenyl)pyridin-3-yl)butylamino)nicotinamido) propanoic acid, Isomer 2] |
| 760 nM | CC(C)CC(Nc1ccc(-c2ccc(C(F)(F)F)cc2)cc1)c1ccc(C(=O)NCCC(=O)O)cn1 (single isomer, unassigned; isomer 1) [Example 2.5, 3-(6-(3-methyl-1-(4′-(trifluoromethyl)biphenyl-4-ylamino)butyl)nicotinamido)propanoic acid, Isomer 1] |
| 120 nM | CCCC(Nc1cnc(-c2ccc(C(F)(F)F)cc2)nc1)c1ccc(C(=O)NCCC(=O)O)cc1 (single isomer, unassigned; isomer 1) [Example 2.16, 3-(4-(1-(2-(4-(trifluoromethyl)phenyl)pyrimidin-5-ylamino)butyl)benzamido)propanoic acid, Isomer 1] |
| 280 nM | CC(C)CC(Nc1ccc(-c2ccc(C(F)(F)F)cc2)nc1)c1ccc(C(=O)NCCC(=O)O)cn1 (racemic) [Example 2.7, (+/−)-3-(6-(3-methyl-1-(6-(4-(trifluoromethyl)phenyl)pyridin-3-ylamino)butyl)nicotinamido)propanoic acid] |
| 53 nM | CC(C)CC(Nc1ccc(C(=O)NCCC(=O)O)cn1)c1ccc(-c2ccc(C(F)(F)F)cn2)cc1 (racemic) [Example 4.22, (+/−)-3-(6-(3-methyl-1-(4-(5-(trifluoromethyl)pyridin-2-yl)phenyl)butylamino)nicotinamido)propanoic acid] |
| 31 nM | O=C(O)CCNC(=O)c1ccc(NC(c2cnc(-c3ccc(C(F)(F)F)cc3)nc2)C2CCCCC2)nc1 (racemic) [Example 4.2, (+/−)-N-({6-[(cyclohexyl{2-[4-(trifluoromethyl)phenyl]pyrimidin-5-yl}methyl)amino]pyridin-3-yl}carbonyl)-beta-alanine] |
| 38 nM | Cc1cc(NC(CC(C)C)c2ccc(C(=O)NCCC(=O)O)cn2)cc(C)c1-c1ccc(C(F)(F)F)cc1 (racemic) [Example 2.1, (+/−)-3-(6-(1-(2,6-dimethyl-4′-(trifluoromethyl)biphenyl-4-ylamino)-3-methylbutyl)nicotinamido)propanoic acid] |
| 820 nM | CCC[C@@H](Nc1cnc(-c2ccc(C(F)(F)F)cc2)cn1)c1ccc(C(=O)NCCC(=O)O)cc1 [Example 4.5, (R)-3-(4-(1-((5-(4-(trifluoromethyl)phenyl)pyrazin-2-yl)amino)butyl)benzamido)propanoic acid] |
| 88 nM | CCCC(Nc1ccc(C(=O)NCCC(=O)O)cn1)c1ccc(-c2ccc(C(F)(F)F)cc2)cc1OC (stereo not drawn) [Example 4.24, 3-(6-(1-(3-methoxy-4′-(trifluoromethyl)biphenyl-4-yl)butylamino)nicotinamido)propanoic acid] |
| 290 nM | CCCC(Nc1ccc(-c2ccc(C(F)(F)F)cc2)nn1)c1ccc(C(=O)NCCC(=O)O)cc1 (racemic) [Example 2.14, (+/−)-3-(4-(1-(6-(4-(trifluoromethyl)phenyl)pyridazin-3-ylamino)butyl)benzamido)propanoic acid] |
| 94 nM | CCCC(Nc1ccc(C(=O)NCCC(=O)O)cn1)c1cnc(-c2ccc(OC(F)(F)F)cc2)nc1 (stereo not drawn) [Example 4.25, 3-(6-(1-(2-(4-(trifluoromethoxy)phenyl)pyrimidin-5-yl)butylamino)nicotinamido)propanoic acid] |
| 60 nM | CCCC(Nc1ccc(-c2ccc(C(F)(F)F)cc2)nc1)c1ccc(C(=O)NCCC(=O)O)cc1 (stereo not drawn) [Example 4.18, 3-(4-(1-(6-(4-(trifluoromethyl)phenyl)pyridin-3-ylamino)butyl)benzamido)propanoic acid] |
